≈ marks a conversion by molar mass, not a printed value.
Legend:
hERG channel = biological target: T1, hERG channel (Homo sapiens, UniProt Q12809); assay: hERG binding study, FluxOR potassium ion channel assay; format: cell-based; settings: hERG CHO cells, thallium flux, 20 min incubation
T1 construct: expressed in transfected cells; host or cells: CHO cells
Experimental: FluxOR™ Potassium Ion Channel Assay
Thallium flows down its concentration gradient into the cells, and channel activity is detected with indicator dye that increases in cytosolic fluorescence. Stably expressing hERG CHO cells are checked with test compounds for hERG liability. Compounds incubated for 20 min with cells then stimulation buffer was added and fluorescence measured on TECAN multimode reader. If test compound is inhibiting hERG channel then it will not allow the thallium to flows down in the cells. Vehicle control is considered as total hERG response while treatment with Astemizole as a total hERG channel inhibition and based on that test compounds hERG channel inhibition calculated.

[1] = test system: Escherichia coli ATCC 25922; assay: MIC, growth inhibition in Mueller Hinton Broth; format: cell-based; settings: ATCC25922, E. coli ATCC 25922, Gram-negative, read-out: Minimum Inhibitory Concentration E. coli ATCC 25922
[2] = test system: Staphylococcus aureus ATCC 29213; assay: MIC, growth inhibition in Mueller Hinton Broth; format: cell-based; settings: ATCC29213, S. aureus ATCC 29213, Gram positive, read-out: Minimum Inhibitory Concentration S. aureus ATCC 29213
[3] = test system: Staphylococcus aureus ZYABL 006; assay: MIC against fluoroquinolone resistant strain; format: cell-based; settings: ZYABL006, quinolone resistant clinical strain, read-out: Minimum Inhibitory Concentration Staphylococcus aureus ZYABL 006
Topoisomerase IV = biological target: T2, Topoisomerase IV (Escherichia coli, UniProt P0AFI2); assay: Topoisomerase IV inhibition, gel electrophoresis method; format: biochemical; settings: 37° C. for 30 min, read-out: Invitro IC50 Topoisomerase IV
T2 construct: purchased Inspiralis
Experimental: (§1) Evaluation of Topoisomerase II/IV inhibition using gel electrophoresis method: Topoisomerase II/IV (1 unit, Inspiralis) was added to a reaction mixture of DNA (pHOT/kDNA, Topogen) and ATP in appropriate buffers following which different concentrations of the test compounds were added and incubated at 37° C. for 30 min. The reaction was terminated after 30 minutes by the addition of stop buffer. The resulting DNA (relaxed, supercoiled or decatanated) was extracted using chloroform: isoamyl alcohol mixture and was separated using 1% agarose gel electrophoresis. Gel was stained with ethidium bromide for 20 minutes, washed with distilled water and the images were captured for further analysis. The band Intensities from the image were measured using Image J software and the half-maximal […] inhibitory concentration was deduced using Graphpad Prism.

Topoisomerase II = Topoisomerase II (UniProt P20831); assay: Topoisomerase II inhibition, gel electrophoresis method; format: biochemical; settings: 37° C. for 30 min, read-out: Invitro IC50 Topoisomerase II
Experimental: as §1

[4] = test system: Mycobacterium tuberculosis; settings: from WO 2008009700 / J. Med. Chem. 2014, 57, 4889-4905; cited from earlier work
K pneumonia ATCC 700603 = settings: from WO 2018172925; cited from earlier work
[5] = test system: Enterococcus Faecalis ATCC29212; settings: from WO 2018172925; cited from earlier work
S. aureus-ATCC 29213 = settings: from WO 2018172925; cited from earlier work
E. coli ATCC 25922 = settings: from WO 2018172925; cited from earlier work
[6] = test system: Moraxella catarrhalis ATCC8176; settings: from WO 2018172925; cited from earlier work
S. pnuemoniae ATCC6301 = settings: from WO 2018172925; cited from earlier work
[7] = test system: Klebsiella pneumonia (ATCC35657); assay: MIC testing against broad panel of strains; settings: Klebsiella pneumoniae, ATCC35657, read-out: MIC Klebsiella pneumonia (ATCC35657)
Experimental: (§2) The ability of the invention compounds disclosed herein to achieve an antibacterial effect may be evaluated with regard to their ability to inhibit the growth of bacterial species like Escherichia coli ATCC 25922, Staphylococcus aureus ATCC 29213 using an assay based on the following Minimum Inhibitory Concentration (MIC) protocol:
(§3) The test bacteria are grown in Muellor Hinton Broth (M1657)—MHB, 25 grams of the powder is dissolved in 1000 ml distilled water and sterilized by autoclaving at 15 lbs pressure (121° C.) for 20 minutes. The medium sterility is checked by incubating at 37° C. for a period of 48 h.
(§4) Bacterial cultures that are stored as glycerol stocks at −80° C. are sub cultured on LB agar plates to obtain isolated colonies. A single colony of each strain is cultured in LB broth. The cultures are incubated at 37° C., 200 rpm till they reach an optical density (OD at 600 nm) of 0.8 to 1. This log phase culture is diluted in LB broth to a cell number of 5-8*10^5 CFU/mL to be used as inoculum for MIC experiments.
(§5) Test compounds were diluted in their respective solvents and added to a final concentration ranging from 16 to 0.12 μg/ml in 150 μl MHB in 96 well plates.
(§6) Controls to monitor the effects of DMSO and media sterility are included. […] The following morning, the plates are read using a Spectrophotometer at 600 nm wavelength.

[8] = test system: Acinetobacter baumannii (BAA1605); assay: MIC testing against broad panel of strains; settings: BAA1605, read-out: MIC Acinetobacter baumannii (BAA1605)
Experimental: as §2, §3, §4, §5, §6

[9] = test system: Staphylococcus pneumonia (ATCC700906); assay: MIC testing against broad panel of strains; settings: ATCC700906, read-out: MIC Staphylococcus pneumonia (ATCC700906)
Experimental: as §2, §3, §4, §5, §6

[10] = test system: Escherichia coli (ATCC10536); assay: MIC testing against broad panel of strains; settings: ATCC10536, read-out: MIC Escherichia coli (ATCC10536)
Experimental: as §2, §3, §4, §5, §6

[11] = test system: Enterococcus faecalis (ATCC700802); assay: MIC testing against broad panel of strains; settings: ATCC700802, read-out: MIC Enterococcus faecalis (ATCC700802)
Experimental: as §2, §3, §4, §5, §6

[12] = test system: Mycobacterium tuberculosis H37Rv; assay: Mycobacterium tuberculosis H37Rv inhibition assay (MIC); format: cell-based
Experimental: Mycobacterium tuberculosis H37Rv Inhibition Assay
The measurement of the minimum inhibitory concentration (MIC) for each tested compound was performed in 96 wells flat bottom, polystyrene microtiter plates following standard protocol.

[13] = test system: Staphylococcus aureus (BAA38); assay: MIC testing against broad panel of strains; settings: BAA38, read-out: MIC Staphylococcus aureus (BAA38)
Experimental: as §2, §3, §4, §5, §6

Chain of Topoisomerase II (P20831 whole entry): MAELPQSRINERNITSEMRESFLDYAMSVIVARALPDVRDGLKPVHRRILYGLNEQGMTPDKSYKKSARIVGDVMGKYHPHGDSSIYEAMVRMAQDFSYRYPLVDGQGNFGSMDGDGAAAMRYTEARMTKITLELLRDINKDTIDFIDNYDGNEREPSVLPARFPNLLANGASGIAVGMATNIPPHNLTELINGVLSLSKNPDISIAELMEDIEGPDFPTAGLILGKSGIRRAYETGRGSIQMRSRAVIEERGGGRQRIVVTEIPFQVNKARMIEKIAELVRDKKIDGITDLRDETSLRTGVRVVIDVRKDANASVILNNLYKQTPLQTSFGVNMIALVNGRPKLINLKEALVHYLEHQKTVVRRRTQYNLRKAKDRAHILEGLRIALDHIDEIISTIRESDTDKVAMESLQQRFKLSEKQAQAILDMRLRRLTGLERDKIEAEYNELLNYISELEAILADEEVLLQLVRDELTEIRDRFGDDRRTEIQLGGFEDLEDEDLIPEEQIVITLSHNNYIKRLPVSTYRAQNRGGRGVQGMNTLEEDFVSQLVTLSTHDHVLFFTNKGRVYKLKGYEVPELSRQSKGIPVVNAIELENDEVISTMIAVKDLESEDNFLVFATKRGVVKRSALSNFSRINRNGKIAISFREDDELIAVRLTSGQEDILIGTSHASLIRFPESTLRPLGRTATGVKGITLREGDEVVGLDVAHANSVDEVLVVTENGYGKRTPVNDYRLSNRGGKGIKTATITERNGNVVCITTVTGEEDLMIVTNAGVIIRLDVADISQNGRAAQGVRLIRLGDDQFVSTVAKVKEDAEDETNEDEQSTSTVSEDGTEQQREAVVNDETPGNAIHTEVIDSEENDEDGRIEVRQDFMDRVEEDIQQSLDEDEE
T1 sequence (Q12809 whole entry): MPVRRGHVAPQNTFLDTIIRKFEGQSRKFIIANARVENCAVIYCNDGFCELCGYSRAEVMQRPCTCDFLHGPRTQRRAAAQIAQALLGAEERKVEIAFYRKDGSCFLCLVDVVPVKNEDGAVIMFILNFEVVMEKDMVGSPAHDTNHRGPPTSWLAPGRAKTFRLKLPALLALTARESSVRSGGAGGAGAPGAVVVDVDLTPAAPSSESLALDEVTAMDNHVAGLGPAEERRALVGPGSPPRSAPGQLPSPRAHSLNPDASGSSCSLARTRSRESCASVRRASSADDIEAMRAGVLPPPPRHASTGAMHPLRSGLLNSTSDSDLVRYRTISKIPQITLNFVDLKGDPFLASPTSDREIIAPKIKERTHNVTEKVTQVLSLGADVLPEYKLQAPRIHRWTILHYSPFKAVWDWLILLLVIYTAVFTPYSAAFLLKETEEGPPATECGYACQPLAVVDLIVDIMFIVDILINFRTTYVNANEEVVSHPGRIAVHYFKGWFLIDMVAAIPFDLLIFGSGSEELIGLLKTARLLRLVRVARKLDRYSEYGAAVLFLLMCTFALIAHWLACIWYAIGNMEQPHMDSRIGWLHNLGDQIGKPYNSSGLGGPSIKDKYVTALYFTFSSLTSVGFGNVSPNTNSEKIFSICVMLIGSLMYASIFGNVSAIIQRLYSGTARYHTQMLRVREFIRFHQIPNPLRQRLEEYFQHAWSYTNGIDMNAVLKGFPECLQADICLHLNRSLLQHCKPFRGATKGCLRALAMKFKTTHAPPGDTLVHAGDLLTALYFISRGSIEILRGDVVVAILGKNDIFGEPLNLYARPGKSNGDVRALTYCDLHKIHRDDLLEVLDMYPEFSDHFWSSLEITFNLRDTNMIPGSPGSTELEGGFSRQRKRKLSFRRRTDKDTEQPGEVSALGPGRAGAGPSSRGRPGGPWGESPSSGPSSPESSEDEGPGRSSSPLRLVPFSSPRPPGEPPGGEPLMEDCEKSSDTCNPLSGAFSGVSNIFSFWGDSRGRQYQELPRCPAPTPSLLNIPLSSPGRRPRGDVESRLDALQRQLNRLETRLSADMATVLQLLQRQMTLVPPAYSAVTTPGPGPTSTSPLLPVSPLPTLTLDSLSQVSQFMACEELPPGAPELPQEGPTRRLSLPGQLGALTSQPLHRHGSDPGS
T2 sequence (P0AFI2 whole entry): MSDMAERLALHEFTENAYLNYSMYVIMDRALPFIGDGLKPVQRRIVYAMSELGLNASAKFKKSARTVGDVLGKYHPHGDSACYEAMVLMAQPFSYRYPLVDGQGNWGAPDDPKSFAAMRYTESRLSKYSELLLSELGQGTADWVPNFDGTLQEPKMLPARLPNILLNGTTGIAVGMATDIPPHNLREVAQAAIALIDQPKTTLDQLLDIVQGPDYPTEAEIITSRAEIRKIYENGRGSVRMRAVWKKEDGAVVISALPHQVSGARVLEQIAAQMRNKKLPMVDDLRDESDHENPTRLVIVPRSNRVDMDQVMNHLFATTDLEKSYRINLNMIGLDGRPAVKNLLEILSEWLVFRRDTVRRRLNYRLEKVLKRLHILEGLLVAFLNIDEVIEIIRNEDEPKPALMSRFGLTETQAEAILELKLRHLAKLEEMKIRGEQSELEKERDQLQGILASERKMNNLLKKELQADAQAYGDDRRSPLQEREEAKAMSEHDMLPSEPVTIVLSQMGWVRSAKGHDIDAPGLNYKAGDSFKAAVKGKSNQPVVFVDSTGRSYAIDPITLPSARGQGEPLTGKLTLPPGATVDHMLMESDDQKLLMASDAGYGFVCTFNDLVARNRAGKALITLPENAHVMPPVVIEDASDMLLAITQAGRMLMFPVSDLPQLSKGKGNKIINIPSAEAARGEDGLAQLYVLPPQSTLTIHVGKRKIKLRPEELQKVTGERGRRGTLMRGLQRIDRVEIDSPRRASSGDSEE
T2 sequence (P20083 whole entry, further chain): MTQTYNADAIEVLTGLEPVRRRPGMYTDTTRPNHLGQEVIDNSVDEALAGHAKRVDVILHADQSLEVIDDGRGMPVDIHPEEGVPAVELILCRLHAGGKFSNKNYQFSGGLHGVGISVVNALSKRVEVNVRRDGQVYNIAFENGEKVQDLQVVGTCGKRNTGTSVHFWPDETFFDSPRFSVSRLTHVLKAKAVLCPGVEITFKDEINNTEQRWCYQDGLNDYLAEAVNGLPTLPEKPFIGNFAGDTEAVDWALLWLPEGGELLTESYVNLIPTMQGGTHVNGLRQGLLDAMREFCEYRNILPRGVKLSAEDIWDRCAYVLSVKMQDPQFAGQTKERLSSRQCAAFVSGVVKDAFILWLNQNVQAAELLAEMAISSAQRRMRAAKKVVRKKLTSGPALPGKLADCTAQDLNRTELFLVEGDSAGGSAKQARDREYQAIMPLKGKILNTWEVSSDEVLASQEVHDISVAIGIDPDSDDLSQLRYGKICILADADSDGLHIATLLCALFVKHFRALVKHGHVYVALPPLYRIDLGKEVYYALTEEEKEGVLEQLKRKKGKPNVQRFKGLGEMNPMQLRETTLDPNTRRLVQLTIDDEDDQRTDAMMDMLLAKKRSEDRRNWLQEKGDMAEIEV

## N#Cc1ccc2ccc(=O)n(CCN3CCC(NCc4ccc5c(c4)NC(=O)CO5)CC3)c2c1 [Example 2, 2-oxo-1-(2-(4-(((3-oxo-3,4-dihydro-2H-benzo[b][1,4]oxazin-6-yl)methyl)amino)piperidin-1-yl)ethyl)-1,2-dihydroquinoline-7-carbonitrile]
hERG channel
  IC50: > 10000 nM
[1]
  MIC: 0.25 µg/mL (≈ 0.546 µM)
[2]
  MIC: 0.25 µg/mL (≈ 0.546 µM)
[3]
  MIC: < 0.125 µg/mL
Topoisomerase IV
  IC50: 1300 nM
Topoisomerase II
  IC50: 3.4 nM

## N#Cc1ccc2ccc(=O)n(CCN3CCC(NCc4cc5c(cn4)OCCO5)CC3)c2c1 [Example 54]
[4]
  MIC against Mycobacterium tuberculosis: 1 µM (≈ 0.446 µg/mL)

## N#Cc1ccc2ncc(=O)n(CCN3CCC(NCc4ccc5c(c4)NC(=O)CS5)CC3)c2c1 [Example 6, 3-oxo-4-(2-(4-(((3-oxo-3,4-dihydro-2H-benzo[b][1,4]thiazin-6-yl)methyl)amino)piperidin-1-yl)ethyl)-3,4-dihydroquinoxaline-6-carbonitrile]
[1]
  MIC: < 0.125 µg/mL
[2]
  MIC: < 0.125 µg/mL

## Cc1ccc(CNC2CCN(CCn3c(=O)ccc4ccc(C#N)cc43)CC2)cc1[N+](=O)[O-] [VT-03-00065]
K pneumonia ATCC 700603
  MIC K pneumonia ATCC 700603: > 32 µg/mL
[5]
  MIC Enterococcus Faecalis ATCC29212: > 32 µg/mL
S. aureus-ATCC 29213
  MIC S. aureus-ATCC 29213: 0.25 µg/mL (≈ 0.561 µM)
E. coli ATCC 25922
  MIC E. coli ATCC 25922: > 32 µg/mL
[6]
  MIC Moraxella catarrhalis ATCC8176: > 32 µg/mL
S. pnuemoniae ATCC6301
  MIC S. pnuemoniae ATCC6301: 4 µg/mL (≈ 8.98 µM)

## O=C1CSc2ccc(CNC3CCN(CCn4c(=O)ccc5ccc(F)cc54)CC3)cc2N1 [Example 5, 6-(((1-(2-(7-fluoro-2-oxoquinolin-1(2H)-yl)ethyl)piperidin-4-yl)amino)methyl)-2H-benzo[b][1,4]thiazin-3(4H)-one]
hERG channel
  IC50: > 10000 nM
[1]
  MIC: 0.25 µg/mL (≈ 0.536 µM)
[2]
  MIC: 0.25 µg/mL (≈ 0.536 µM)
[3]
  MIC: < 0.125 µg/mL
Topoisomerase IV
  IC50: 800 nM
Topoisomerase II
  IC50: 38.4 nM

## N#Cc1ccc2ccc(=O)n(CCN3CCC(NCc4ccc5c(c4)OCCO5)CC3)c2c1 [Example 1, 1-(2-(4-(((2,3-dihydrobenzo[b][1,4]dioxin-6-yl)methyl)amino)piperidin-1-yl)ethyl)-2-oxo-1,2-dihydroquinoline-7-carbonitrile]
hERG channel
  IC50: > 30000 nM
[1]
  MIC: 0.5 µg/mL (≈ 1.12 µM)
[2]
  MIC: 0.03 µg/mL (≈ 0.0675 µM)
[3]
  MIC: < 0.125 µg/mL
Topoisomerase IV
  IC50: 900 nM
Topoisomerase II
  IC50: 44 nM

## N#Cc1ccc2ccc(=O)n(CCN3CCC(NCc4ccc5c(c4)NC(=O)CS5)CC3)c2c1 [Example 3, 2-oxo-1-(2-(4-(((3-oxo-3,4-dihydro-2H-benzo[b][1,4]thiazin-6-yl)methyl)amino)piperidin-1-yl)ethyl)-1,2-dihydroquinoline-7-carbonitrile]
hERG channel
  IC50: > 10000 nM
[1]
  MIC: 0.125 µg/mL (≈ 0.264 µM)
[7]
  MIC: 0.25 µg/mL (≈ 0.528 µM)
[8]
  MIC: 0.25 µg/mL (≈ 0.528 µM)
[9]
  MIC: 0.125 µg/mL (≈ 0.264 µM)
[10]
  MIC: 0.125 µg/mL (≈ 0.264 µM)
[11]
  MIC: 0.5 µg/mL (≈ 1.06 µM)
[2]
  MIC: 0.06 µg/mL (≈ 0.127 µM)
[12]
  inhibition of Mycobacterium tuberculosis (in words): potent inhibition
[12]; Mycobacterium tuberculosis, H37RV, 96 well microtiter plates
  MIC: 0.25 µM (≈ 0.118 µg/mL)
[3]
  MIC: < 0.125 µg/mL
Topoisomerase IV
  IC50: 300 nM
Topoisomerase II
  IC50: 3.2 nM
[13]
  MIC: 0.125 µg/mL (≈ 0.264 µM)

## O=C1COc2ccc(CNC3CCN(CCn4c(=O)ccc5ccc(F)cc54)CC3)cc2N1 [Example 4, 6-(((1-(2-(7-fluoro-2-oxoquinolin-1(2H)-yl)ethyl)piperidin-4-yl)amino)methyl)-2H-benzo[b][1,4]oxazin-3(4H)-one]
hERG channel
  IC50: > 10000 nM
[1]
  MIC: < 0.125 µg/mL
[2]
  MIC: < 0.125 µg/mL
[3]
  MIC: < 0.125 µg/mL
Topoisomerase IV
  IC50: 400 nM
Topoisomerase II
  IC50: 6.9 nM

Reference: patent US20210052597A1, “HETEROCYCLIC COMPOUNDS USEFUL AS ANTIBACTERIAL AGENTS” (CADILA HEALTHCARE LIMITED, priority 2018, published 2021)
